Measurements: patent publication EP2954896A1, “Small molecule inhibitors of the E3 Ligase Skp2 in depression and other diseases” (Max-Planck-Gesellschaft zur Förderung der Wissenschaften …, priority 2014, dated 2015)

Legend:
[1] = Forced swim test after acute antidepressant injection in Fkbp51+/+ and Fkbp51-/- mice; type: in vivo; settings: FKBP51 WT versus FKBP51 KO mice; 10 mg kg-1 intraperitoneal
Description: The Fkbp51^-/- mouse line was previously generated (Touma C et al. (2011) Biol. Psychiatry 70: 928-936) and fully backcrossed to C57/BI6. […] Hippocampus and prefrontal cortex were extracted. […] Male mice (age 10-16 weeks) were injected intraperitoneally with a single dose of either AMI (10 mg kg^-1) or saline vehicle. […] Another subgroup (WT n=5, KO n=5) was sacrificed, and brain tissue and blood was sampled for analysis of drug concentrations. […] The inventors performed an additional forced swim test administering the antidepressant amitriptyline in FKBP51 WT and FKBP51 KO mice (Fig. 1 B).

autophagy markers = test: Autophagy markers in protein extracts of hippocampus and prefrontal cortex after acute antidepressant injection; type: in vivo, mice; settings: FKBP51 WT versus FKBP51 KO mice; 10 mg kg-1
Description: Western blot analysis was performed on eluates from ColPs or with protein extracts from cells or tissue. Protein extracts were obtained by lysing cells or tissue (prelysed as described in the paragraph before) in 62.5 mM Tris, 2% SDS and 10% sucrose, supplemented with protease (Sigma, P2714) and phosphatase (Roche, 04906837001) inhibitor cocktail. Samples were sonicated and heated at 95 °C for 5 min. Proteins were separated by SDS-PAGE and electro-transferred onto nitrocellulose membranes. Blots were placed in Tris-buffered saline, supplemented with 0.05% Tween (Sigma, P2287) and 5% non-fat milk for 1 h at room temperature and then incubated with primary antibody (diluted in TBS/0.05% Tween) overnight at 4 °C. The following primary antibodies were used: Beclin1 (1:1000, Cell Signaling, #3495), Atg12 (1:1000, Cell Signaling #2010), LC3B-I/II (1:1000, Cell Signaling, #2775), FLAG (1:7000, Rockland, 600-401-383), FKBP51 (1:1000, Bethyl, A301-430A), Akt (1:1000, Cell Signaling, #4691), pAkt (1:1000, Ser473, T308, 1:1000, Cell Signaling, #4058, #9275), Actin (1:5000, Santa Cruz Biotechnologies, sc-1616), Skp2, myc (Addgene, 19947), GFP (santa cruz biotechnologies, sc-8334), p27 (cell signaling technologies, 3686), pULK,(S757, cell signaling technologies, 6888) APP-CTF (sigma-aldrich, A8717), DNMT1 (1:1000, Imgenex, IMG-261A), phospho-DNMT1 (S154), (1:1000, Abnova, PAB4924), ptau (S622; Santa Cruz Biotechnologies, #sc-16938).
Subsequently, blots were washed and probed with the respective horseradish peroxidase- or fluorophore-conjugated secondary antibody for 1 h at room temperature. The immuno-reactive bands were visualized either using ECL detection reagent (Millipore, Billerica, MA, USA, WBKL0500) or directly by excitation of the respective fluorophore. Determination of the band intensities were performed with BioRad, ChemiDoc MP, or X-ray-films.
The Fkbp51^-/- mouse line was previously generated (Touma C et al. (2011) Biol. Psychiatry 70: 928-936) and fully backcrossed to C57/BI6. […] Hippocampus and prefrontal cortex were extracted.

Beclin1 mRNA = Beclin1 mRNA expression by qPCR in rat cortical astrocytes; type: cell-based; settings: 10µM for 72h; vehicle set to 1
Description: (§1) Enriched astroglial cultures were prepared from postnatal day 1 rat pups (Sprague-Dawley, Charles River, Sulzfeld, Germany) and handled as described by Attwood BK et al. (2011) Nature 473: 372-375 and Hartmann J et al. (2012) Neuropharmacology 62: 332-339.
Total RNA was isolated from astroglial cells according to the manufacturer's protocol of NucleoSpin RNA II (Macherey-Nagel, Germany). In total, 300 ng of purified RNA was reverse transcribed using random primers (Promega) and Omniscript® Reverse Transcriptase (Qiagen). Based on the LightCycler® System (Roche Applied Science, Germany) and SYBR green detection (QuantiFast® SYBR Green; Qiagen), quantitative assessment of Beclin1 cDNA levels were performed. b-Actin PCR was performed serving as endogenous control for normalization. The primers used were: for Beclin1: antisense - 5'-[…]-3' sense - 5'-[…]-3'; and for β-Actin: antisense - 5'-[…]-3', sense-5'-[…]-3'. Relative changes of gene expression were calculated using the comparative ΔΔCT method (Livak and Schmittgen, METHODS 25, 402-408, 2001). Detection of viral RNA by real-time PCR was as recently described (Corman et al. (2014) Journal of Clinical Virology 60: 168-171).
Beclin1 mRNA expression levels were determined by qPCR. HEK cells were treated either with proteasome inhibitor MG132 or with vehicle for 5h and Beclin1 protein levels were determined by Western analysis. Furthermore Co-immunoprecipitations were performed with Beclin1 antibody in HEK cell lysates with ectopic Ub-GFP.

[2] = tested on: primary rat cortical astrocytes; test: MTT cytotoxicity assay in primary rat cortical astrocytes; type: cell-based
Description: as §1
In an effort to find a small molecule to inhibit the E3 ligase Skp2 three promising candidates of published chemical genetic screens were tested on cellular toxicity and its potency to stabilise Beclin1. Cytotoxicity was determined by an MTT assay performed in HEK 293 cell and in primary rat cortical astrocytes. Effects of small compounds on Beclin1 and p27 protein levels were determined by Western analysis of HEK 293 primary rat cortical astrocytic lysates (see Fig. 6).

Beclin1 [3] = test: Western analysis of Beclin1 and p27 protein levels in HEK 293 and astrocytic lysates; type: cell-based; settings: HEK 293 and primary rat cortical astrocytic lysates
Description: (§2) Western blot analysis was performed on eluates from ColPs or with protein extracts from cells or tissue. Protein extracts were obtained by lysing cells or tissue (prelysed as described in the paragraph before) in 62.5 mM Tris, 2% SDS and 10% sucrose, supplemented with protease (Sigma, P2714) and phosphatase (Roche, 04906837001) inhibitor cocktail. Samples were sonicated and heated at 95 °C for 5 min. Proteins were separated by SDS-PAGE and electro-transferred onto nitrocellulose membranes. Blots were placed in Tris-buffered saline, supplemented with 0.05% Tween (Sigma, P2287) and 5% non-fat milk for 1 h at room temperature and then incubated with primary antibody (diluted in TBS/0.05% Tween) overnight at 4 °C. […]

Beclin1 [4] = test: Western analysis of Beclin1 protein level in primary rat cortical astrocytes; type: cell-based
Description: as §2

Beclin1 [5] = test: Protein levels in brain extracts (hippocampus, prefrontal cortex) of SMIP004-treated mice; type: in vivo, C57BL/6 mice; settings: various cell types; brain lysates of animals treated with SMIP004 (0.5 or 5 mgkg-1)
Description: as §2
Furthermore the neuronal activity in CA1 hippocampus was measured after treatment with SMIP004 (Figure 7). […] And protein levels were determined in extracts of the hippocampus and the prefrontal cortex.

CA1 neuronal activity = test: Voltage-sensitive dye imaging (VSDI) of evoked CA1 neuronal activity in brain slices; settings: 10 µM SMIP004, 1 h after wash in; slices from C57BL/6 mice
Description: Brain slices were obtained from 11-18 week-old male FKBP51+/+ and FKBP51-/- litter mates (Fig. 1) or from BL6 mice (Fig. 7). […] Four acquisitions subsequently recorded at intervals of 5 s were averaged. Neuronal activity was evoked by square pulse electrical stimuli (200 µs pulse width) delivered via a custom-made monopolar tungsten electrode to the Schaffer collateral-commissural pathway. The circular ROI was placed into the CA1 stratum radiatum near the stimulation electrode. The ROI also covered a part of the adjacent CA1 stratum pyramidale (Fig. 1 B). The intensity of voltage stimulation was adjusted to produce FDSs with peak amplitudes of ~30% of the highest attainable value.
Hippocampal CA3-CA1 synapses were electrically stimulated in brain slices from Fkbp51^+/+ and Fkbp51^-/- mice, and CA1 neuronal activity was monitored by means of voltagesensitive dye imaging (VSDI).

Tail suspension test = type: in vivo; settings: C57BL/6 mice; SMIP004 0.5 or 5 mgkg-1; paroxetine 10 mgkg-1 as comparator
soluble Aβ = test: Aβ42 ELISA in Alzheimer model mice (TG2576); type: in vivo, TG2576 animals; settings: 5mg/kg daily intraperitoneal for 3 months
Description: (§3) TG2576 animals (used as Alzheimer's disease model, overexpress a mutant form of amyloid precursor protein (APP)) were chronically treated with daily intraperitoneal injections of SMIP004 (N-(4-butyl-2-methylphenyl)acetamide; 5mg/kg) or vehicle (0.9% NaCl; 1.25% DMSO) for 3 months. Brain and other tissue was analyzed for markers of autophagy and for the levels of soluble beta-amyloid (Aβ). It is commonly assumed that Aβ agglomerates are causally linked to Alzheimer's disease.

APP-CTF = APP-CTF Western blot in brain extracts of Alzheimer model mice (TG2576); type: in vivo, TG2576 animals; settings: 5mg/kg daily intraperitoneal for 3 months
Description: (§4) For the precipitation of Beclin1 from brain tissue (Fig. 15), the tissue was first homogenized (300µL of Buffer I (50 mM Tris (pH 7.5), 150 mM NaCl, 5 mM EDTA, Protease inhibitor Mix (Sigma , P2714), Phosphatase Inhibitor (Roche, 04906837001)) followed by sonication and addition of 300µL of Buffer II (50 mM Tris (pH 7.5), 150 mM NaCl, 1% NP40, 1% Deoxycholate, 2% SDS, Protease inhibitor Mix (Sigma , P2714), Phosphatase Inhibitor (Roche, 04906837001)).
as §2, with “membranes.” for “membranes. Blots were placed in Tris-buffered saline, supplemented with 0.05% Tween (Sigma, P2287) and 5% non-fat milk for 1 h at room temperature and then incubated with primary antibody (diluted in TBS/0.05% Tween) overnight at 4 °C.”
as §3, with “It is commonly assumed that Aβ agglomerates are causally linked to Alzheimer's disease.” left out

autophagy = test: Autophagy markers (Western blot, Beclin1 immunoprecipitation) in brain extracts of Alzheimer model mice (TG2576); type: in vivo, TG2576 animals; settings: 5mg/kg daily intraperitoneal for 3 months
Description: as §4
as §2, with “membranes.” for “membranes. Blots were placed in Tris-buffered saline, supplemented with 0.05% Tween (Sigma, P2287) and 5% non-fat milk for 1 h at room temperature and then incubated with primary antibody (diluted in TBS/0.05% Tween) overnight at 4 °C.”
as §3, with “It is commonly assumed that Aβ agglomerates are causally linked to Alzheimer's disease.” left out

For `CN(C)CCC=C1c2ccccc2CCc2ccccc21` [amitriptyline], the “behavioral effects, forced swim test” value [1] was “only observed in FKBP51 WT mice but not in FKBP51 KO mice”, the “effects on autophagy markers” value (autophagy markers) was “only observed in FKBP51 WT mice but not in FKBP51 KO mice” and the “Beclin1 mRNA expression level” value (Beclin1 mRNA) was “do not change Beclin1-mRNA”.

With `CCCCc1ccc(NC(C)=O)c(C)c1` [SMIP004, N-(4-butyl-2-methylphenyl)acetamide] the “cytotoxic effects (MTT assay)” value [2] was “very low cytotoxic effects”, the “stabilization of Beclin1 (protein level, Western analysis)” value (Beclin1 [3]) was “potent stabilizer of Beclin1” and the “effect on Beclin1 protein level” value (Beclin1 [4]) was “particularly strong”. For the same compound, the “Beclin1 stabilization confirmed in other cell types and mice brain lysates” value (Beclin1 [5]) was “confirmed in various cell types as well as in mice brain lysates”, the “synaptic neurotransmission (CA1 FDSs, VSDI)” value (CA1 neuronal activity) was “increased synaptic neurotransmission similarly to paroxetine” and the “antidepressant-like behavior in the tail suspension test” value (Tail suspension test) was “antidepressant-like behavior comparable to animals treated with paroxetine”. The “levels of soluble Aβ in plasma and CSF” value (soluble Aβ) was “reduces the levels of soluble Aβ in plasma and CSF”, the “levels of APP-CTF in the brain” value (APP-CTF) was “reduces the levels of APP-CTF in the brain” and the “induction of autophagy (p27, Beclin1, Atg12, pULK S757; Beclin1 ubiquitinylation, Vps34 association)” value (autophagy) was “induces autophagy, independently of the mTOR-ULK1 cascade”.

For `CNCCC(Oc1ccc(C(F)(F)F)cc1)c1ccccc1` (stereo not shown) [fluoxetine], the “Beclin1 mRNA expression level” value (Beclin1 mRNA) was “do not change Beclin1-mRNA”.
